According to PubChem BioAssay (NCI):
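Where inhibition never reached the appropriate level, the endpoint shown equals the highest concentration tested. Otherwise, values were interpolated linearly from a five-concentration, 48-hour dose response in 96-well plates. Abbreviation: GI50, concentration required for 50% inhibition of growth. Definition used: TGI = concentration required for complete inhibition of growth.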

How the values were obtained:
Experiment in all cases: growth of human tumour cells (NCI), 48 h
OVCAR-3 ovarian = test system: OVCAR-3 ovarian
MDA-MB-231 breast = test system: MDA-MB-231 breast
NCI-H522 lung = test system: NCI-H522 lung
U251 CNS = test system: U251 CNS
SK-MEL-2 melanoma = test system: SK-MEL-2 melanoma
UO-31 renal = test system: UO-31 renal
HCT-15 colon = test system: HCT-15 colon
SF-268 CNS = test system: SF-268 CNS
HCT-116 colon = test system: HCT-116 colon
RXF 393 renal = test system: RXF 393 renal
T-47D breast = test system: T-47D breast
OVCAR-8 ovarian = test system: OVCAR-8 ovarian
HT29 colon = test system: HT29 colon
MCF7 breast = test system: MCF7 breast
SR leukemia = test system: SR leukemia
DU-145 prostate = test system: DU-145 prostate
K-562 leukemia = test system: K-562 leukemia
MOLT-4 leukemia = test system: MOLT-4 leukemia
NCI/ADR-RES ovarian = test system: NCI/ADR-RES ovarian

## O=C(O)c1cc(-c2ccc(-c3ccc(-c4cc(C(=O)O)c5cc(Cl)ccc5n4)cc3)cc2)nc2ccc(Cl)cc12
OVCAR-3 ovarian
  GI50: 48.8 µM
MDA-MB-231 breast
  GI50: 46.5 µM
NCI-H522 lung
  GI50: 79.8 µM
U251 CNS
  GI50: 40.9 µM
SK-MEL-2 melanoma
  GI50: 56 µM
UO-31 renal
  GI50: 32.5 µM
HCT-15 colon
  GI50: 67.2 µM
SF-268 CNS
  GI50: 94.7 µM
HCT-116 colon
  GI50: 52.4 µM
RXF 393 renal
  GI50: 77.9 µM
T-47D breast
  GI50: 50.9 µM

## Cc1ccc(-c2cc3nc(C(Cl)Cl)nc(-c4cccnc4)n3n2)cc1
OVCAR-8 ovarian
  GI50: 1.48 µM
  TGI: > 100 µM
HT29 colon
  GI50: 0.652 µM
  TGI: > 100 µM
MCF7 breast
  GI50: 2.01 µM
  TGI: > 100 µM
SR leukemia
  GI50: 0.495 µM
  TGI: > 100 µM
DU-145 prostate
  GI50: 0.548 µM
  TGI: 3.79 µM
K-562 leukemia
  GI50: 2.01 µM
  TGI: > 100 µM
MOLT-4 leukemia
  GI50: 1.83 µM
  TGI: > 100 µM

## BrCCCc1n(Cc2ccc3ccccc3c2)c2ccccc2[n+]1Cc1ccc2ccccc2c1
DU-145 prostate
  GI50: 1.58 µM
  TGI: 4.25 µM
NCI/ADR-RES ovarian
  GI50: 8.47 µM
  TGI: > 81.3 µM
